According to the Deep4Chem optical property database:
“And” between values parts separate entries of the source, which are not always exact repeats. Equal entries are not always repeated. One block for each compound: values may come before it.

Experiment: solvent given as SMILES
[1] = in O=P(c1ccccc1)(c1ccccc1)c1ccccc1Oc1ccccc1P(=O)(c1ccccc1)c1ccccc1

SMILES: CCCCCN(c1ccccc1)c1ccc2c(c1)C(CC)(CC)c1cc(/C=C/c3ccc(/C=C(\C#N)C(=O)O)s3)ccc1-2
emission maximum (in C1CCOC1): 597 nm
emission maximum (in C1COCCO1): 618 nm
emission maximum (in CC#N): 496 nm
emission maximum (in CC(C)=O): 574 nm
emission maximum (in CCOC(C)=O): 580 nm
emission maximum (in CN(C)C=O): 504 nm
emission maximum (in CS(C)=O): 517 nm
emission maximum (in ClCCl): 584 nm

SMILES: F[B-]1(F)Oc2c(-c3cccc4c3O[B-](F)(F)[n+]3c(-c5ccccc5)c(-c5ccccc5)n(-c5ccc(C(F)(F)F)cc5)c3-4)cccc2-c2n(-c3ccc(C(F)(F)F)cc3)c(-c3ccccc3)c(-c3ccccc3)[n+]21
emission maximum (in C1CCOC1): 399 nm

SMILES: COC1=C/C(=C\C=C2C=CN(Cc3ccc(Br)cc3)C=C2)C=CC1=O
emission maximum (in CC#N): 665 nm
emission maximum (in CC(C)=O): 670 nm
emission maximum (in CC(C)CO): 642 nm
emission maximum (in CC(C)O): 641 nm
emission maximum (in CCC#N): 665 nm
emission maximum (in CCCCCCO): 645 nm
emission maximum (in CCCCCO): 643 nm
emission maximum (in CCCCO): 640 nm
emission maximum (in CCCO): 639 nm
emission maximum (in CCO): 638 nm
emission maximum (in CN(C)C=O): 682 nm
emission maximum (in CN(C)P(=O)(N(C)C)N(C)C): 670 nm
emission maximum (in CO): 636 nm
emission maximum (in CS(C)=O): 669 nm

SMILES: CCCCn1c2ccc(C#Cc3cccs3)cc2c2c1c1c3ccc(C#Cc4cccs4)cc3n(CCCC)c1c1c3ccc(C#Cc4cccs4)cc3n(CCCC)c21
emission maximum (in C1CCOC1): 430 nm

SMILES: CC(C)(C)NC(=O)c1ccc(C(=O)NC(C)(C)C)c2c1c1c3ccccc3c3ccccc3c1c1c3ccccc3c3ccccc3c21
emission maximum (in ClCCl): 476 nm

SMILES: O=S(=O)(c1ccc(N(c2ccccc2)c2ccccc2)cc1)c1ccc(N(c2ccccc2)c2ccccc2)cc1
emission maximum (in Cc1ccccc1): 402 nm
emission maximum [1]: 421 nm

SMILES: O=S1(=O)c2ccc(-c3ccc(-n4c5ccccc5c5ccccc54)cc3)cc2C2(c3ccccc3-c3ccccc32)c2cc(-c3ccc(-n4c5ccccc5c5ccccc54)cc3)ccc21
emission maximum (in CC(C)=O): 443.88 nm
emission maximum (in CCCCCC): 400.18 nm
emission maximum (in CN(C)C=O): 455.8 nm
emission maximum (in Cc1ccccc1): 396.57 nm
emission maximum (in ClCCl): 432 nm

SMILES: CCCCCCCCCCCCCCCCn1c(-c2cc(-c3nc4ccc(C)cc4n3CCCCCCCCCCCCCCCC)cc(-c3nc4ccc(C)cc4n3CCCCCCCCCCCCCCCC)c2)nc2ccc(C)cc21
emission maximum (in C1CCOC1): 366.9 nm

SMILES: CC1(C)c2cc(-n3c4ccccc4c4ccccc43)ccc2N(c2ccc(-c3cc(-c4ccccc4)nc(-c4ccccc4)n3)cc2)c2ccc(-n3c4ccccc4c4ccccc43)cc21
emission maximum (in Cc1ccccc1): 494.44 nm

SMILES: Cc1c(COC(=O)c2ccc(I)cc2)n2c(OCC(=O)c3ccc(I)cc3)c(C)c(=O)n2c1=O
emission maximum (in CCO): 458 nm

SMILES: C[n+]1ccc(-c2cc[n+](C)cc2)cc1
emission maximum (in CC#N): 353 nm

SMILES: c1ccc(-c2ccc3c(c2)c2cc(-c4ccccc4)ccc2n3-c2ccc3c(c2)c2cc(-n4c5ccc(-c6ccccc6)cc5c5cc(-c6ccccc6)ccc54)ccc2n3-c2ccc(-c3nc(-c4ccccc4)nc(-c4ccccc4)n3)cc2)cc1
emission maximum (in Cc1ccccc1): 457 nm
emission maximum [1]: 480 nm

SMILES: CCCC1(CCC)c2ccccc2-c2ccc(-c3ccc4c(c3)C(CCC)(CCC)c3cc(-c5ccc6c(c5)C(CCC)(CCC)c5ccccc5-6)ccc3-4)cc21
emission maximum (in C1CCCCC1): 396 nm

SMILES: CC(C)[Si](C#Cc1c2ccccc2c(C#C[Si](C(C)C)(C(C)C)C(C)C)c2nc3c4ccccc4c(=O)c4ccccc4c3nc12)(C(C)C)C(C)C
emission maximum (in ClCCl): 544 nm

SMILES: COC(=O)/C=C/c1ccc2ccc3cccc4ccc1c2c34
emission maximum (in C1CCOC1): 425.5 nm
emission maximum (in C1COCCO1): 422.5 nm
emission maximum (in C=CC#N): 447.5 nm
emission maximum (in CC#N): 450 nm
emission maximum (in CC(C)=O): 438 nm
emission maximum (in CCCCCC): 406.5 nm
emission maximum (in CCOC(C)=O): 423 nm
emission maximum (in CO): 462.5 nm
emission maximum (in Cc1ccccc1): 423 nm
emission maximum (in ClCCl): 442 nm

SMILES: COc1ccc(-c2c(-c3ccc(C)cc3)c3n(c2-c2ccc(C)cc2)[B-](F)(F)[N+]2=C(c4ccc(C)cc4)C(/C=C/C(=O)OC4CC[C@@]5(C)C(=CC[C@H]6[C@@H]7CC[C@H]([C@H](C)CCCC(C)C)[C@@]7(C)CC[C@@H]65)C4)=C(c4ccc(C)cc4)C2=N3)cc1 (some centres not stated)
emission maximum (in ClC(Cl)Cl): 702 nm

SMILES: C=CCOC(=O)C(C#N)=C1C=C(/C=C/c2ccc(N(C)C)cc2)OC(/C=C/c2ccc(N(C)C)cc2)=C1
emission maximum (in C1CCOC1): 595 nm
emission maximum (in C1COCCO1): 564 nm
emission maximum (in CC#N): 624 nm
emission maximum (in CN(C)C=O): 616 nm
emission maximum (in Cc1ccccc1): 556 nm
emission maximum (in ClC(Cl)Cl): 585 nm
emission maximum (in ClCCCl): 614 nm
emission maximum (in ClCCl): 601 nm

SMILES: CCCCCCNC(=O)c1sc(-c2ccc(-c3cc(-c4ccc(C(C)(C)C)cc4)c(C(=O)NCCCCCC)s3)s2)cc1-c1ccc(C(C)(C)C)cc1
emission maximum (in ClCCl): 448 nm

SMILES: CCOC(=O)/C=C/C1=C(c2ccc(C)cc2)C2=Nc3c(-c4ccc(C)cc4)c(Br)c(-c4ccc(C)cc4)n3[B-](F)(F)[N+]2=C1c1ccc(C)cc1
emission maximum (in ClC(Cl)Cl): 703 nm

SMILES: CC1(C)c2ccccc2N(c2ccc3c(c2)c2ccccc2c2nc4ccccc4nc32)c2ccccc21
emission maximum (in Cc1ccccc1): 541 nm
emission maximum (in c1cc(-c2cccc(-n3c4ccccc4c4ccccc43)c2)cc(-n2c3ccccc3c3ccccc32)c1): 549 nm

SMILES: CCN(CC)c1ccc2cc(-c3csc(NC(C)=O)c3C#N)c(=O)oc2c1
emission maximum (in C1CCOC1): 457 nm
emission maximum (in CO): 477 nm
emission maximum (in CS(C)=O): 479 nm
emission maximum (in Cc1ccccc1): 448 nm
emission maximum (in ClCCl): 463 nm

Continued, values first:

emission maximum (in O): 385 nm
SMILES: O=c1ccc2ccccc2o1

emission maximum (in O): 432 nm
SMILES: O=C(O)CCCCCn1c2ccccc2c(=O)c2cc(Br)ccc21

emission maximum (in C1CCCCC1): 471 nm
emission maximum (in CC#N): 501 nm
emission maximum (in CCO): 521 nm
emission maximum (in c1ccccc1): 482 nm
SMILES: Nc1cccc2c1C(=O)c1ccccc1-2

emission maximum (in ClC(Cl)Cl): 683 nm
SMILES: COc1ccc(-c2cc3c(o2)=CC2=Cc4cc5oc(-c6ccc(OC)cc6)cc5n4[B-](F)(F)[N+]=32)cc1

emission maximum (in CO): 534 nm
SMILES: c1ccc(N(c2ccccc2)c2ccc(-c3ncc(-c4ccncc4)s3)cc2)cc1

emission maximum (in CO): 813 nm
SMILES: O=C(O)c1ccc(C2=C(/C=C/c3[se]c4ccccc4[n+]3CCCCS(=O)(=O)[O-])CCC/C2=C\C=C2/[Se]c3ccccc3N2CCCCS(=O)(=O)[O-])cc1

emission maximum (in CCO): 642 nm
emission maximum (in CS(C)=O): 649 nm
emission maximum (in O): 620 nm
SMILES: CC1(C)C(/C=C/c2cc3ccc(O)cc3oc2=O)=[N+](CCCS(=O)(=O)[O-])c2ccccc21

emission maximum (in ClC(Cl)Cl): 614 nm
SMILES: Cc1cc(C)c(C2=C3C=CC(c4ccccc4O)=[N+]3[B-]3(c4ccccc4)Oc4ccccc4-c4ccc2n43)c(C)c1 (configuration not stated)

emission maximum (in C1COCCO1): 428 nm
emission maximum (in CC#N): 458 nm
emission maximum (in CC(C)O): 480 nm
emission maximum (in CCO): 489 nm
emission maximum (in CCOC(C)=O): 433 nm
emission maximum (in CN(C)C=O): 452 nm
emission maximum (in CO): 498 nm
emission maximum (in CS(C)=O): 450 nm
emission maximum (in OCC(O)CO): 404 nm
emission maximum (in OCCO): 493 nm
SMILES: Nc1c(-c2nn([C@H]3C[C@H](O)[C@@H](CO)O3)c3ncnc(N)c23)ccc2ccccc12

emission maximum (in ClCCl): 515 nm
SMILES: CCOc1ccc(/C=C/c2nc(N3CCOCC3)c3c([n+]2[O-])CCCC3)cc1

emission maximum (in CC#N): 463 nm
emission maximum (in ClCCl): 464 nm
SMILES: COC(=O)c1cc(=O)n(C)c2cc(-c3cccc(OC)c3)sc12

emission maximum (in ClCCl): 376 nm
SMILES: O=P(c1ccccc1)(c1ccccc1)c1cccc(-c2nc3ccccc3n2-c2cccc(P(=O)(c3ccccc3)c3ccccc3)c2)c1

emission maximum (in CC#N): 424 nm
SMILES: CCCCCCCCCC[n+]1cc2ccc3c[n+](CCCCCCCCCC)cc4ccc(c1)c2c34

emission maximum (in ClCCl): 450 nm
SMILES: CC(=O)c1c(N[C@@H](Cc2ccccc2)C(=O)O)c2ccc(N(C)C)cc2oc1=O

emission maximum (in CCOC(C)=O): 379 nm
emission maximum (in CS(C)=O): 440 nm
emission maximum (in ClCCl): 420 nm
SMILES: Cc1cc2c3ccccc3oc2c2c1c1ccccc1n2-c1ccc(C#N)cc1

emission maximum (in c1ccccc1): 448 nm
SMILES: COc1ccc2nc(-c3ccccc3)c(=O)oc2c1

emission maximum (in CC#N): 442 nm
emission maximum (in CCO): 442 nm
emission maximum (in ClCCl): 445 nm
SMILES: C[P+]1(c2ccccc2)c2ccccc2-c2sc3ccccc3c21 (configuration not stated)

emission maximum (in ClCCl): 401 nm
SMILES: FC(F)(F)c1ccccc1B1c2ccccc2Nc2ccccc21

emission maximum (in CO): 478 nm
SMILES: COc1ccc(-c2nc(-c3cccc(C#N)c3)[nH]c2-c2ccc(OC)cc2)cc1

emission maximum (in ClCCl): 546 nm
SMILES: [O-][n+]1c(/C=C/c2ccc3ccccc3c2)nc(N2CCOCC2)c2c1CCCC2

emission maximum (in C1CCCCC1): 462 nm
emission maximum (in CC1CCCCC1): 462 nm
emission maximum (in CC#N): 501 nm and 506.6 nm
emission maximum (in CCC(C)CC): 461.6 nm
emission maximum (in CCCCCC): 463 nm
emission maximum (in CCO): 505 nm
emission maximum (in CCOC(C)=O): 492.8 nm
SMILES: CCN(CC)c1ccc2cc(-c3nc4ccccc4s3)c(=O)oc2c1

emission maximum (in C1CCOC1): 527 nm
SMILES: N#Cc1c(N2CCCC2)cc(-c2ccccc2)c2c1-c1ccccc1C2=O

emission maximum (in CCO): 447 nm
SMILES: COc1ccc(C(=O)OCc2ccc3c4cccc5cccc(c6cccc2c63)c54)cc1

emission maximum (in CC#N): 432 nm
emission maximum (in CO): 430 nm
emission maximum (in CS(C)=O): 438 nm
emission maximum (in ClC(Cl)Cl): 437 nm
SMILES: O=C1c2ccccc2C2=Cc3ccccc3B(O)N12

emission maximum (in C1CCCCC1): 404 nm
emission maximum (in C1CCOC1): 408 nm
emission maximum (in C1COCCO1): 407 nm
emission maximum (in CC#N): 411 nm
emission maximum (in CC(C)(C)O): 411 nm
emission maximum (in CC(C)O): 413 nm
emission maximum (in CCCCCC): 401 nm
emission maximum (in CCCCO): 414 nm
emission maximum (in CCO): 414 nm
emission maximum (in CCOC(C)=O): 407 nm
emission maximum (in CN(C)C=O): 413 nm
emission maximum (in CO): 417 nm
emission maximum (in CS(C)=O): 417 nm
emission maximum (in ClC(Cl)Cl): 413 nm
emission maximum (in ClCCl): 413 nm
emission maximum (in O): 440 nm
emission maximum (in OCCO): 426 nm
SMILES: COc1ccc(/C=N/c2cc(C(C)C)c(O)cc2C)cc1
